This note sets out measurements from the supplement of paper PMC10307832.

What all share (test): relative viability (nuclei count vs DMSO), 5 days (fraction); higher = more cells survive
Compound in experiment [1]: C1=CC2=C(C=C(C(=C2N=C1)O)N=NC3=CC4=C(C=C3)C=C(C=C4)S(=O)(=O)O)S(=O)(=O)O + CS(=O)(=O)CCNCc1ccc(-c2ccc3ncnc(Nc4ccc(OCc5cccc(F)c5)c(Cl)c4)c3c2)o1 [Lapatinib] (partner 2 µM)
In outline:
(§1)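 Lung cancer cell lines, seeded in 1536-well plates, were treated the following day by pin tool with a single drug or with five library-drug doses (not always all listed) in √10 steps on top of a fixed anchor-drug dose. Cells were fixed and nuclei stained in one step after 5 days, and nuclei were counted. Relative viability is the nuclei count for treated wells divided by that for vehicle wells, reported as medians of duplicate plates.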

Compound in experiment [2]: C1=CC2=C(C=C(C(=C2N=C1)O)N=NC3=CC4=C(C=C3)C=C(C=C4)S(=O)(=O)O)S(=O)(=O)O + C[C@]1(O)C[C@@H](c2nc(-c3ccc4ccc(-c5ccccc5)nc4c3)c3c(N)nccn32)C1 [Linsitinib] (partner 1 µM)
Put shortly: as §1

Compound in the experiment “AT-7519 + Tozasertib”: O=C(NC1CCNCC1)c1n[nH]cc1NC(=O)c1c(Cl)cccc1Cl [AT-7519] + Cc1cc(Nc2cc(N3CCN(C)CC3)nc(Sc3ccc(NC(=O)C4CC4)cc3)n2)n[nH]1 [Tozasertib] (partner 0.1 µM)
In outline:
as §1

Compound in the experiment “AT-7519 + Decitabine”: O=C(NC1CCNCC1)c1n[nH]cc1NC(=O)c1c(Cl)cccc1Cl [AT-7519] + Nc1ncn([C@H]2C[C@H](O)[C@@H](CO)O2)c(=O)n1 [Decitabine] (partner 2 µM)
Put shortly:
as §1

As for UMC-11, the relative viability is 1.07 in experiment [1] (first compound 0.08 µM); 0.969 in experiment [1] (first compound 0.253 µM); 0.889 in experiment [1] (first compound 0.8 µM); 1.02 in experiment [1] (first compound 2.53 µM); 0.716 in experiment [1] (first compound 8 µM); 1.11 in experiment [2] (first compound 0.08 µM). Further, the relative viability in experiment [2] (first compound 0.253 µM) amounted to 0.943; in experiment [2] (first compound 0.8 µM), 1.03; in experiment [2] (first compound 2.53 µM) it was 1.02; in experiment [2] (first compound 8 µM) it was 0.944; with AT-7519 + Tozasertib (first compound 0.01 µM) it was 0.223; in the experiment with AT-7519 + Tozasertib (first compound 0.03162 µM), 0.211. The relative viability with AT-7519 + Tozasertib (first compound 0.3162 µM) came to 0.278; with AT-7519 + Tozasertib (first compound 1 µM) it was 0.219; in the experiment with AT-7519 + Decitabine (first compound 0.01 µM), 0.675; with AT-7519 + Decitabine (first compound 0.03162 µM), 0.551; with AT-7519 + Decitabine (first compound 0.3162 µM) it was 0.514; in the experiment with AT-7519 + Decitabine (first compound 1 µM), 0.306.
